Laboratory results: patent publication US20220395522A1, “Methods of Use of Glucosamine for Increasing Nitrogen Retention” (TSI Bioproducts (Xuzhou) Co., Ltd., priority 2021, published 2022)
Where two headings read alike, the source gives them in different places.

Type: in vivo, human
Details: for Fecal 3-Hydroxybutyrate / Fecal Acetate / Fecal Alanine / Fecal Butyrate / Fecal Cadaverine / Fecal Ethanol / Fecal Formate / Fecal Fumarate / Fecal Glucose / Fecal Glutamate / Fecal Glycerol / Fecal Glycine / Fecal Hypoxanthine / Fecal Isobutyrate / Fecal Isoleucine / Fecal Isovalerate / Fecal Lactate / Fecal Leucine / Fecal Lysine / Fecal Methionine / Fecal Methionine-sulfoxide / Fecal N-Acetylglucosamine / Fecal Nicotinate / Fecal Phenylacetate / Fecal Phenylalanine / Fecal Proline / Fecal Propionate / Fecal Putrescine / Fecal Ribose / Fecal Succinate / Fecal Threonine / Fecal Total AA / Fecal Total BCAAs / Fecal Total SCFA / Fecal Tyrosine / Fecal Uracil / Fecal Urocanate / Fecal Valerate / Fecal Valine / Fecal Xylose / Fecal p-Cresol: GLU condition, mean ± SD
Description: Stool specimens were collected at four time points throughout the entire study protocol. The first two samples were collected before and after the first supplementation period while the final two samples were collected before and after the second supplementation period. All stool specimens were collected no more than 24-hours prior to that study participant being scheduled to complete their laboratory visit. All samples were immediately frozen after sample collection by the study participants. Participants were instructed to keep their samples in the freezer and to remove them at the latest possible time to minimize thawing during transfer to the laboratory for storage. Participants were provided with all materials necessary to collect, store, and transport the stool specimen including commode fecal collection system, fecal collection tubes with screw top lids and scoops attached, disposable gloves, freezer packs, specimen labels, and transfer containers. Participants were instructed to raise the toilet seat and place the stool collection frame on the back of the toilet bowl and then lower the toilet seat down and place collection bowl in frame. Participants then sat on the toilet and collected a stool sample into the container. Participants were instructed, if possible, to not urinate into the collection container. Participants then extracted a representative stool sample and filled each of the two provided sample collection tubes. Tubes were then secured, labeled, and frozen. All remaining stool was discarded into the toilet and flushed. Upon arrival in the laboratory each sample was immediately stored at −80° C.
A Fecal Metabolome Analysis was further conducted. Samples were manually homogenized with a sterile microspatula, and approximately 250 mg of fecal material was weighed and extracted using 1.5 mL of ice-cold Dulbecco's phosphate buffered saline (DPBS, 1×, pH 7.4). After extraction, samples were centrifuged, and the pellet was dried using a Labconco FreeZone 4.5 L Freeze Dry System to determine fecal dry weight. The supernatant was sequentially filtered through a 0.22 μm pore-size syringe filter (Millex-GP syringe filter, Millipore, Billerica, Mass.) to remove microbes followed by a 3 kDa ultracentrifugal filter (Amicon ultracentrifugal filter, Millipore, Billerica, Mass.) to remove any excess proteins. To 207 […], 23 […] (5 mM DSS-d6 (trimethylsilylpropanesulfonate) containing 0.2% NaN3 in 99.8% D20 was added to aid in quantification of metabolites. The pH of each sample was adjusted to 6.8±0.1 through addition of small amounts of NaOH or HCl. Samples were transferred to 3 mm Bruker NMR tubes (Bruker, Brillerica, Mass.) and stored at 4° C. until spectral acquisition. Nuclear magnetic resonance (NMR) spectra were acquired using a Bruker Avance 600 MHz NMR spectrometer equipped with a SampleJet autosampler (Bruker BioSpin, Germany) at 298 K using the NOESY 1H presaturation experiment (‘noesypr1d’). Data were acquired with a spectral width of 12 ppm, a 2.5-second acquisition time, a relaxation delay of 2.5 seconds, and a 100-millisecond mixing time using 32 transients and 8 dummy scans. Water saturation was applied during the relaxation delay and mixing time. Each spectrum was Fourier Transformed with zero filling to 128,000 data points, and the resulting Free Induction Decay (FID) was transformed with an exponential apodization function corresponding to a line-broadening of 0.5 Hz. Spectra were subsequently phased and baseline corrected using Chenomx NMRSuite Processor v8.3 (Chenomx Inc., Edmonton, Canada). Metabolites were identified and quantified based on the known concentration of the internal standard, using Chenomx NMRSuite Profiler v8.3 based on the established method of targeted profiling.

[1] = Post 21 days, 3 x 1,000 mg/day oral

## Cl.N[C@H]1C(O)O[C@H](CO)[C@@H](O)[C@@H]1O (some centres unmarked) [GLU, glucosamine hydrochloride]
[1]
  Fecal 3-Hydroxybutyrate: 76 ± 35
  Fecal Acetate: 43,680 ± 11,351
  Fecal Alanine: 2228 ± 721
  Fecal Butyrate: 13,538 ± 6558
  Fecal Cadaverine: 165 ± 56
  Fecal Ethanol: 272 ± 187
  Fecal Formate: 403 ± 299
  Fecal Fumarate: 218 ± 115
  Fecal Glucose: 3334 ± 2753
  Fecal Glutamate: 6773 ± 2223
  Fecal Glycerol: 6397 ± 3575
  Fecal Glycine: 965 ± 399
  Fecal Hypoxanthine: 325 ± 143
  Fecal Isobutyrate: 1956 ± 1334
  Fecal Isoleucine: 777 ± 388
  Fecal Isovalerate: 1712 ± 1304
  Fecal Lactate: 172 ± 396
  Fecal Leucine: 1094 ± 496
  Fecal Lysine: 1454 ± 554
  Fecal Methionine: 352 ± 210
  Fecal Methionine-sulfoxide: 202 ± 149
  Fecal N-Acetylglucosamine: 187 ± 152
  Fecal Nicotinate: 271 ± 106
  Fecal Phenylacetate: 999 ± 786
  Fecal Phenylalanine: 544 ± 208
  Fecal Proline: 654 ± 326
  Fecal Propionate: 12,663 ± 5766
  Fecal Putrescine: 115 ± 61
  Fecal Ribose: 1332 ± 533
  Fecal Succinate: 758 ± 430
  Fecal Threonine: 659 ± 252
  Fecal Total AA: 17,208 ± 5190
  Fecal Total BCAAs: 2873 ± 1312
  Fecal Total SCFA: 76,527 ± 25,492
  Fecal Tyrosine: 707 ± 273
  Fecal Uracil: 684 ± 287
  Fecal Urocanate: 85 ± 48
  Fecal Valerate: 2574 ± 1519
  Fecal Valine: 1003 ± 451
  Fecal Xylose: 702 ± 545
  Fecal p-Cresol: 551 ± 537
Pre (baseline)
  Fecal 3-Hydroxybutyrate: 89 ± 62
  Fecal Acetate: 40,675 ± 12,876
  Fecal Alanine: 2667 ± 1134
  Fecal Butyrate: 11,370 ± 5781
  Fecal Cadaverine: 170 ± 52
  Fecal Ethanol: 169 ± 98
  Fecal Formate: 298 ± 166
  Fecal Fumarate: 225 ± 151
  Fecal Glucose: 2229 ± 2054
  Fecal Glutamate: 8882 ± 3831
  Fecal Glycerol: 7458 ± 7347
  Fecal Glycine: 1207 ± 514
  Fecal Hypoxanthine: 414 ± 190
  Fecal Isobutyrate: 2097 ± 887
  Fecal Isoleucine: 1029 ± 462
  Fecal Isovalerate: 1885 ± 886
  Fecal Lactate: 60 ± 49
  Fecal Leucine: 1422 ± 622
  Fecal Lysine: 1834 ± 815
  Fecal Methionine: 424 ± 290
  Fecal Methionine-sulfoxide: 258 ± 191
  Fecal N-Acetylglucosamine: 249 ± 147
  Fecal Nicotinate: 327 ± 162
  Fecal Phenylacetate: 1095 ± 511
  Fecal Phenylalanine: 629 ± 280
  Fecal Proline: 687 ± 280
  Fecal Propionate: 12,596 ± 4145
  Fecal Putrescine: 92 ± 59
  Fecal Ribose: 1428 ± 760
  Fecal Succinate: 635 ± 289
  Fecal Threonine: 831 ± 355
  Fecal Total AA: 21,838 ± 8104
  Fecal Total BCAAs: 3802 ± 1674
  Fecal Total SCFA: 71,612 ± 22,891
  Fecal Tyrosine: 874 ± 394
  Fecal Uracil: 922 ± 352
  Fecal Urocanate: 104 ± 57
  Fecal Valerate: 2691 ± 1314
  Fecal Valine: 1351 ± 610
  Fecal Xylose: 441 ± 420
  Fecal p-Cresol: 597 ± 330
PLA vs. GLU, between-group
  Fecal 3-Hydroxybutyrate, %: 4.3%
  Fecal Acetate, %: 0.5%
  Fecal Alanine, %: −33.4%
  Fecal Butyrate, %: 14.3%
  Fecal Cadaverine, %: −29.1%
  Fecal Ethanol, %: 123.7%
  Fecal Formate, %: 30.7%
  Fecal Fumarate, %: −29.4%
  Fecal Glucose, %: 61.4%
  Fecal Glutamate, %: −30.7%
  Fecal Glycerol, %: −33.0%
  Fecal Glycine, %: −34.5%
  Fecal Hypoxanthine, %: −27.1%
  Fecal Isobutyrate, %: −38.6%
  Fecal Isoleucine, %: −40.5%
  Fecal Isovalerate, %: −18.9%
  Fecal Lactate, %: 107.7%
  Fecal Leucine, %: −28.4%
  Fecal Lysine, %: −32.1%
  Fecal Methionine, %: −23.7%
  Fecal Methionine-sulfoxide, %: 37.4%
  Fecal N-Acetylglucosamine, %: −34.9%
  Fecal Nicotinate, %: −6.6%
  Fecal Phenylacetate, %: −30.6%
  Fecal Phenylalanine, %: −15.6%
  Fecal Proline, %: −5.7%
  Fecal Propionate, %: −10.0%
  Fecal Putrescine, %: 5.0%
  Fecal Ribose, %: −37.4%
  Fecal Succinate, %: 8.0%
  Fecal Threonine, %: −31.8%
  Fecal Total AA, %: −31.0%
  Fecal Total BCAAs, %: −36.5%
  Fecal Total SCFA, %: −1.3%
  Fecal Tyrosine, %: −30.5%
  Fecal Uracil, %: −34.7%
  Fecal Urocanate, %: −38.7%
  Fecal Valerate, %: −36.0%
  Fecal Valine, %: −42.4%
  Fecal Xylose, %: 70.8%
  Fecal p-Cresol, %: −27.7%
Compared to baseline, p<0.05
  Fecal glutamate, isoleucine, leucine and valine content: significantly reduced
  Total amino acids, change: −21%
  Total branched-chain amino acid, change: −24%
Compared to baseline, p=0.02
  Fecal nucleotides (uracil): significantly reduced
p>0.05
  Effect on individual or total short-chain fatty acids: no effect
